Where a SMILES comes first, the peptide text is derived from it.
Experiments:
ERK = test: Western blot of ERK and p-ERK in RAW 264.7 cells; format: cell-based, mouse; conditions: LPS 30 min with various concentrations of PBD-2 (Figure S4)
Protocol: […] […] Proteins were firstly analyzed with SDS-PAGE and then electro-transferred onto a PVDF (#ISEQ00010, Biosharp®, Beijing, China) membrane. The PVDF membrane was blocked with 1/100 bovine serum albumin (BSA, #V900933-100G, VETEC, Sigma-Aldrich®, St. Louis, MO, USA) at 10 μg/ml at 37°C for 2 h, washed with PBST five times, incubated with the antisera against p-p65 (# 3033), p65 (# 4764), p-ERK (# 4370), ERK (# 4695), p-p38 (# 4511), p38 (# 8690), p-JNK (# 4668), JNK (# 9258) (Cell Signaling Technology®, Danvers, MA, USA), and β-actin (# AA128, Beyotime®, Shanghai, China) at 2 μg/ml at 37°C for 2 h and washed five times again. The PVDF membrane was subsequently incubated with 1 μg/ml secondary antibody, namely, goat anti-rabbit IgG (# 7074S, Cell Signaling Technology®, Danvers, MA, USA), at 37°C for 2 h and washed five times. Lastly, immune-reactive bands were detected using an ECF Western blot system (Tanon 5200 Multi, Shanghai, China) and quantified using AlphaImager 2200 analysis software.
Supplementary file Image_4.TIF: Figure S4 Effects of PBD-2 on ERK, p38, and JNK signaling pathways. Cells were treated with LPS for 30 min with or without various concentrations of PBD-2. The expression levels of ERK, p-ERK, p38, p-p38, JNK, p-JNK, and β-actin were examined by Western blot (A). The signal intensity of each band was quantified (B–D). Click here for additional data file.

TLR4 [1] = test: Interaction of PBD-2 with TLR4 in RAW 264.7 cells, coimmunoprecipitation; format: binding, mouse; conditions: PBD-2 1, 10, 30, and 50 μg/ml, 16 h, captured with PBD-2 antisera
Protocol: A Co-IP assay was conducted using a Co-IP kit (# abs955, Absin®, Shanghai, China) in accordance with the manufacturer's instructions. In brief, RAW 264.7 cells were cultured in dishes of 10 cm in diameter. The cells (1 × 10^7) were treated with different concentrations of PBD-2 (1, 10, 30, and 50 μg/ml) for 16 h and lysed using a lysis buffer that contained protease inhibitors […]. The soluble faction of the cell lysate was collected after centrifugation at 14,000 × g at 4°C for 10 min. Afterwards, 2 μl of PBD-2 antisera (with titer 1:500,000) or 2 μl of mouse IgG antisera (# sc-2025, Santa Cruz®, CA, USA) as control were incubated with 200 μg of the cell lysate at 4°C for 12 h. Protein A/G beads (5 μl) were added and incubated at 4°C for 12 h. The precipitates with the immune complexes were collected by centrifugation at 12,000 × g at 4°C for 1 min. The beads were washed with a wash buffer. TLR4 in the precipitates was detected with Western blot by using an antibody against TLR4 (# sc-293072, Santa Cruz®, Santa Cruz, CA, USA).

BSA = test: Interaction with BSA (control), far-Western blot; format: binding, bovine; conditions: PBD-2 10 μg/ml, 37°C, 2 h
Protocol: (§1) TLR4 and BSA proteins as a control were subject to SDS-PAGE and electro-transferred onto a PVDF membrane. The PVDF membrane was blocked with 10 μg/ml BSA in PBST at 37°C for 2 h, washed five times with PBST and incubated with PBST that contained 10 μg/ml PBD-2 or 10 μg/ml BSA as a control at 37°C for 2 h. After the membranes were washed, the PVDF membrane was incubated with anti-PBD-2 antisera (with a titer 1:500,000) at 37°C for 2 h and washed five times with PBST. The membrane was then incubated with the secondary antibodies, namely, goat anti-mouse IgG (# AS003, ABclonal®, Wuhan, China), at 37°C for 2 h and washed five times with PBST. Lastly, immune-reactive bands were detected using an ECF Western blot system (Tanon 5200 Multi, Shanghai, China).

TLR4 [2] = biological target: T1, TLR4 (Mus musculus, UniProt Q9QUK6); test: Interaction with TLR4, far-Western blot; format: binding; conditions: PBD-2 10 μg/ml, 37°C, 2 h
T1 construct: purchased Cloud-clone, Wuhan, China RPA753Mu01
Protocol: as §1

[3] = system: dextran sodium sulfate (DSS) in mice; conditions: ref [33], cited from earlier work
Text: The antibiotic resistance of pathogenic bacteria has become a global threat ([30]). Defensins are natural peptides secreted by many species and implicated in resisting bacterial infection ([31]). PBD-2 is one of the defensins expressed in pigs. […] The invasion of S. Typhimurium can increase the expression of PBD-2 in porcine epithelial cells ([32]). […] PBD-2 also improves the growth perf ... || The colitis caused by S. Typhimurium mainly results from intestinal mucosal inflammation after the breakage of intestinal epithelial barrier by pathogens ([26]). […] AMPs have various structures which may lead to their different act ...

S. Typhimurium = test: Serum cytokine levels of mice infected with S. Typhimurium (ELISA); format: in vivo, Salmonella Typhimurium 14028 (in mice); conditions: 24 h, n = 6
Protocol: At 24 h post-infection, blood samples of the mice were collected to detect cytokines IL-6 (# EMC004.96), tumor necrosis factor-α (TNF-α, # EMC102a.96), IL-1β (# EMC001b.96), and IL-12 (# EMC006.96) using ELISA kits (Neo-bioscience Technology Company, Shenzhen China). For cytokine detections in the WT mice with or without treatment of PBD-2, the blood samples were collected from the WT mice orally administered with solely 2.5 × 10^8 CFU of S. Typhimurium (n = 6) or together with PBD-2 at 5 mg/kg body weight (n = 6).

[4] = PBD-2 expressed in TG mice, oral 2.5 × 10^8 CFU S. Typhimurium, vs WT
[5] = synthetic PBD-2 5 mg/kg orally with 2.5 × 10^8 CFU S. Typhimurium, WT mice, vs infection alone

T1 sequence (Q9QUK6 26-835): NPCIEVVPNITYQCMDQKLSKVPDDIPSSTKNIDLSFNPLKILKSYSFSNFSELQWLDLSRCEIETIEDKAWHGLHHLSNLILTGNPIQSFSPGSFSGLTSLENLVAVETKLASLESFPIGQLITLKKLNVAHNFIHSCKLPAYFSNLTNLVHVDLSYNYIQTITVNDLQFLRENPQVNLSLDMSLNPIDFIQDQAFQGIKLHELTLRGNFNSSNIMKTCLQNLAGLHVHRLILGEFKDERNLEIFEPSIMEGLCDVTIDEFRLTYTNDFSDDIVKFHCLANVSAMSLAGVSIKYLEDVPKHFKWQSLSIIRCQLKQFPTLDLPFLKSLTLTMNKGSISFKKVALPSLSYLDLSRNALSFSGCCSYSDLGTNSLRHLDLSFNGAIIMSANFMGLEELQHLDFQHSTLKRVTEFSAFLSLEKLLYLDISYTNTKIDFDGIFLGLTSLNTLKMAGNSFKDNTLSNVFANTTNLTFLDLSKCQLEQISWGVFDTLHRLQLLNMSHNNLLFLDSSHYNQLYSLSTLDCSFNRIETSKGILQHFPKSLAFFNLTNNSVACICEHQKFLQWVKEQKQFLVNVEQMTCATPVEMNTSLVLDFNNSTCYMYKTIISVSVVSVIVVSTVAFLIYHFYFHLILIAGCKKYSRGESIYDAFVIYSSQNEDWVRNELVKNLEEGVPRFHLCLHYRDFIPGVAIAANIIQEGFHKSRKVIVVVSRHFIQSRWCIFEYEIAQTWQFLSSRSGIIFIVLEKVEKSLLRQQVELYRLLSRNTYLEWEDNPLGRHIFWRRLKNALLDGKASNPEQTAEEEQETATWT

CC[C@H](C)[C@H](NC(=O)[C@@H]1CSSC[C@@H]2NC(=O)[C@@H]3CCCN3C(=O)[C@H](CO)NC(=O)[C@H](Cc3ccccc3)NC(=O)[C@H](CC(N)=O)NC(=O)[C@@H]3CSSC[C@H](NC(=O)[C@H]([C@@H](C)O)NC(=O)CNC(=O)[C@H](CCC(=O)O)NC(=O)[C@H]([C@@H](C)CC)NC(=O)[C@H](CCCNC(=N)N)NC(=O)[C@H](CC(N)=O)NC(=O)[C@H](Cc4ccccc4)NC(=O)[C@H](CC(C)C)NC(=O)[C@@H]4CCCN4C2=O)C(=O)N[C@@H](Cc2ccc(O)cc2)C(=O)N[C@@H](CO)C(=O)NCC(=O)N[C@@H](CCCCN)C(=O)N[C@@H](C)C(=O)N[C@@H](CCCCN)C(=O)N[C@@H](CSSC[C@H](NC(=O)[C@@H](NC(=O)[C@H](Cc2ccc(O)cc2)NC(=O)[C@H](Cc2c[nH]cn2)NC(=O)[C@@H](N)CC(=O)O)[C@@H](C)CC)C(=O)N[C@@H](C)C(=O)N[C@@H](CCCCN)C(=O)N[C@@H](CCCCN)C(=O)NCC(=O)NCC(=O)N[C@@H]([C@@H](C)O)C(=O)N3)C(=O)N1)C(=O)N[C@@H](CCCNC(=N)N)C(=O)O [PBD-2, Porcine beta-defensin 2] (HELM PEPTIDE1{D.H.Y.I.C.A.K.K.G.G.T.C.N.F.S.P.C.P.L.F.N.R.I.E.G.T.C.Y.S.G.K.A.K.C.C.I.R}$PEPTIDE1,PEPTIDE1,5:R3-34:R3|PEPTIDE1,PEPTIDE1,12:R3-27:R3|PEPTIDE1,PEPTIDE1,17:R3-35:R3$$$V2.0; N-terminus and C-terminus assumed)
LPS-induced phosphorylation of ERK (ERK): did not affect the LPS-induced phosphorylation of ERK, p38, and JNK | coimmunoprecipitation of TLR4 with PBD-2 (TLR4 [1]): could react with the antibody against TLR4 | binding to BSA on PVDF membrane (BSA): not to BSA | binding to TLR4 on PVDF membrane (TLR4 [2]): could bind to TLR4 | mucosal damage caused by DSS ([3]; mice): alleviate mucosal damage caused by dextran sodium sulfate (DSS) in mice | DSS-induced inflammation, NF-κB signaling [3]: suppresses the DSS-induced inflammation by suppressing the NF-κB signaling pathway | inflammation in DSS-induced colitis [3]: attenuates inflammation in DSS-induced colitis | level of IL-1β in serum (S. Typhimurium; [4]): significantly lower than those of the WT mice (p < 0.05) | level of IL-6 in serum (S. Typhimurium; [4]): significantly lower than those of the WT mice (p < 0.05) | level of IL-12 in serum (S. Typhimurium; [4]): significantly lower than those of the WT mice (p < 0.05) | level of TNF-α in serum (S. Typhimurium; [4]): significantly lower than those of the WT mice (p < 0.05) | level of IL-1β in serum (S. Typhimurium; [5]): significantly lower levels of proinflammatory cytokines than the mice infected with S. Typhimurium alone did (p < 0.05) | level of IL-6 in serum (S. Typhimurium; [5]): significantly lower levels of proinflammatory cytokines than the mice infected with S. Typhimurium alone did (p < 0.05) | level of IL-12 in serum (S. Typhimurium; [5]): significantly lower levels of proinflammatory cytokines than the mice infected with S. Typhimurium alone did (p < 0.05) | level of TNF-α in serum (S. Typhimurium; [5]): significantly lower levels of proinflammatory cytokines than the mice infected with S. Typhimurium alone did (p < 0.05)
